Test results: PMC11971462, “Generation and validation of a novel multitarget small molecule in glioblastoma” (Cell Death & Disease, 2025)

Columns and labels:
[1] = tested on: GNS166 cells; experiment: q-RTPCR of selected DEGs; type: cell-based, human; conditions: GNS166 treated versus non-treated
Experimental: Total RNA was extracted using Trizol (Life Thechnologies). Reverse transcription was then performed with the Maxima First Strand cDNA Synthesis Kit (ThermoFisher), following manufacturer’s guidelines. Quantitative real-time PCR was carried out in a CFX384 Thermal Cycler (BioRad) by Absolute SYBR Green mix (ThermoFisher). GAPDH was used as housekeeping gene for the correction of variations on initial cDNA levels, and relative gene expression was determined using the 2^-ΔΔCt formula.

[2] = tested on: U87-MG cells; experiment: Subcutaneous U87-MG tumor growth, combined treatment with TMZ; type: in vivo, athymic nude-Foxn1nu mice
Experimental: For tumor growth experiments, 5 × 10^5 U87-MG cells were subcutaneously injected into two bottom flanks of athymic nude-Foxn1^nu mice, and once tumors reached a size of 25-50 mm^3, mice were sorted into groups taking into account gender and tumor size. Afterwards, mice were intratumorally treated with vehicle, SAHA 100 µM or DDI199 100 µM following a schedule of 5 days on and 2 days off. In combined treatment, mice were treated intraperitoneally with 0.5 mg/Kg of TMZ for 5 days and intratumorally following a schedule of 5 days on and 2 days off with vehicle, SAHA 100 µM or DDI199 100 µM. After 4 weeks of treatment, some mice were kept for washout experiment, while the rest were sacrificed and tumors were extracted for immunohistochemistry and to disaggregate for reinjection and oncosphere formation studies. For reinjection assays, 1.5 × 10^5 cells were subcutaneously injected and tumor size was periodically measured. Once tumors reached end-point criteria, they were extracted for immunohistochemical analysis. An external caliper was used for tumor size measurement and the tumor volume was estimated using the formula V = L · W^2 · 0.5 (where L is tumor length and W is the tumor width).

[3] = TMZ 0.5 mg/kg ip + DDI199 100 µM intratumoral

C#CCN(Cc1cc2cc(OCCCN3CCCCC3)ccc2n1S(=O)(=O)c1ccccc1)C(=O)CCCCCCC(=O)NO [DDI199]
Expression of genes associated to neurotransmission/synapsis (q-RTPCR) [1]: significantly higher
Expression of genes associated with cell cycle and DNA remodeling (q-RTPCR) [1]: significantly reduced
Mean tumor volume, combined with TMZ ([2]; TMZ 0.5 mg/kg ip 5 days + 100 µM intratumoral, end-point, controls 600 mm^3): 115 mm^3
Reduction in final tumor volume versus TMZ + SAHA, combined with TMZ [2, 3]: ~70%
Reduction in final tumor volume versus controls, combined with TMZ [2, 3]: 80%
Reduction in tumor volume versus TMZ alone, combined with TMZ [2, 3]: 70%
Reduction in tumor weight versus TMZ + SAHA, combined with TMZ [2, 3]: 47%
Reduction in tumor weight versus TMZ alone, combined with TMZ [2, 3]: 65%
Reduction in tumor weight versus controls, combined with TMZ [2, 3]: 65%
